Source: PubChem BioAssay AID248 (DTP/NCI, 2004)
Several values for one entry are separate records, joined by “and”; a condition that tells them apart may be missing. Equal entries are not always repeated. Toxic doses and inconclusive results are not listed. Rule as the data show it: active = T/C of 150% or more; inactive = T/C below 125%.

Test system: L1210 leukemia ip in BDF1 mice, survival T/C
Assay: NCI In Vivo Anticancer Drug Screen. Data for tumor model L1210 Leukemia (intraperitoneal) in B6D2F1 (BDF1) mice
Details: endpoint: mean survival time, higher = longer survival
How it was run: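 Value reflects the ratio of survival in compound-treated mice to survival in vehicle-treated controls, with both groups carrying the same transplanted tumor.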

[1] = dose: 100.0 mg/kg/injection, schedule: Q04DX003 (ip), vehicle: saline
[2] = dose: 200.0 mg/kg/injection, schedule: Q04DX003 (ip), vehicle: saline
[3] = dose: 400.0 mg/kg/injection, schedule: Q04DX003 (ip), vehicle: saline
[4] = dose: 100.0 mg/kg/injection, schedule: Q01DX001 (ip), vehicle: saline with Tween-80
[5] = dose: 200.0 mg/kg/injection, schedule: Q01DX001 (ip), vehicle: saline with Tween-80
[6] = dose: 400.0 mg/kg/injection, schedule: Q01DX001 (ip), vehicle: saline with Tween-80
[7] = dose: 100.0 mg/kg/injection, schedule: Q01DX001 (ip), vehicle: saline
[8] = dose: 200.0 mg/kg/injection, schedule: Q01DX001 (ip), vehicle: saline
[9] = dose: 400.0 mg/kg/injection, schedule: Q01DX001 (ip), vehicle: saline
[10] = dose: 100.0 mg/kg/injection, schedule: Q04DX002 (ip), vehicle: saline
[11] = dose: 200.0 mg/kg/injection, schedule: Q04DX002 (ip), vehicle: saline
[12] = dose: 100.0 mg/kg/injection, schedule: Q04DX003 (ip), vehicle: Klucel (hydroxypropylcellulose) (HPC)
[13] = dose: 200.0 mg/kg/injection, schedule: Q04DX003 (ip), vehicle: Klucel (hydroxypropylcellulose) (HPC)
[14] = dose: 100.0 mg/kg/injection, schedule: Q04DX002 (ip), vehicle: Klucel (hydroxypropylcellulose) (HPC)
[15] = dose: 200.0 mg/kg/injection, schedule: Q04DX002 (ip), vehicle: Klucel (hydroxypropylcellulose) (HPC)
[16] = dose: 400.0 mg/kg/injection, schedule: Q04DX002 (ip), vehicle: Klucel (hydroxypropylcellulose) (HPC)
[17] = dose: 100.0 mg/kg/injection, schedule: Q01DX009 (ip), vehicle: saline
[18] = dose: 25.0 mg/kg/injection, schedule: Q01DX009 (ip), vehicle: saline with Tween-80
[19] = dose: 50.0 mg/kg/injection, schedule: Q01DX009 (ip), vehicle: saline with Tween-80
[20] = dose: 50.0 mg/kg/injection, schedule: Q04DX003 (ip), vehicle: saline with Tween-80
[21] = dose: 100.0 mg/kg/injection, schedule: Q01DX009 (ip), vehicle: saline with Tween-80
[22] = dose: 100.0 mg/kg/injection, schedule: Q04DX003 (ip), vehicle: saline with Tween-80
[23] = dose: 200.0 mg/kg/injection, schedule: Q04DX003 (ip), vehicle: saline with Tween-80
[24] = dose: 400.0 mg/kg/injection, schedule: Q04DX003 (ip), vehicle: saline with Tween-80
[25] = dose: 100.0 mg/kg/injection, schedule: Q04DX002 (ip), vehicle: saline with Tween-80
[26] = dose: 200.0 mg/kg/injection, schedule: Q04DX002 (ip), vehicle: saline with Tween-80
[27] = dose: 400.0 mg/kg/injection, schedule: Q04DX002 (ip), vehicle: saline with Tween-80

Measured: T/C

Cc1ccc(-n2nnnc2N)c(C)c1
inactive: [1] 94 % of control | [2] 91 % of control | [3] 94 % of control

c1ccc(-c2ccc(-c3c(-c4ccccc4)ccc(-c4ccccc4)c3-c3ccccc3)cc2)cc1
inactive: [4] 104 % of control | [5] 104 % of control | [6] 112 % of control

Nc1ccc(CCCC(=O)Nc2ccc(S(=O)(=O)F)cc2)cc1
inactive: [7] 101 % of control | [8] 97 % of control | [9] 103 % of control

C=C1CC(CCCC2CC(=C)C(=O)O2)OC1=O (stereo not drawn)
inactive: [10] 101 % of control | [11] 111 % of control

C(=C\c1ccccc1)/Cc1ccccc1
inactive: dose: 100.0 mg/kg/injection, schedule: Q01DX009 (ip), vehicle: Klucel (hydroxypropylcellulose) (HPC) 97 % of control | [12] 101 % of control | dose: 200.0 mg/kg/injection, schedule: Q01DX009 (ip), vehicle: Klucel (hydroxypropylcellulose) (HPC) 95 % of control | [13] 111 % of control | dose: 400.0 mg/kg/injection, schedule: Q01DX009 (ip), vehicle: Klucel (hydroxypropylcellulose) (HPC) 103 % of control | dose: 400.0 mg/kg/injection, schedule: Q04DX003 (ip), vehicle: Klucel (hydroxypropylcellulose) (HPC) 92 % of control

S=C(Nc1ccc(Cl)cc1)Nc1ccc(Cc2ccc(NC(=S)Nc3ccc(Cl)cc3)cc2)cc1
inactive: [14] 113 % of control | [15] 106 % of control | [16] 92 % of control

O=C(Nc1ncc([N+](=O)[O-])s1)c1ccccc1Oc1ccccc1
inactive: [14] 102 % of control | [15] 115 % of control | [16] 100 % of control

FN1C(F)(F)C(F)(F)C(F)(F)C(F)(F)C1(F)F
inactive: dose: 100.0 mg/kg/injection, schedule: Q01DX001 (ip), vehicle: acetone 100 % of control | dose: 200.0 mg/kg/injection, schedule: Q01DX001 (ip), vehicle: acetone 87 % of control | dose: 400.0 mg/kg/injection, schedule: Q01DX001 (ip), vehicle: acetone 92 % of control

O=C(O)C1C(C(=O)O)C2(Cl)C(Cl)=C(Cl)C1(Cl)C2(Cl)Cl.[Mn] (stereo not drawn)
inactive: dose: 44.0 mg/kg/injection, schedule: Q01DX009 (ip), vehicle: saline 107 % of control | dose: 50.0 mg/kg/injection, schedule: Q01DX009 (ip), vehicle: saline sonified 114 % of control | dose: 66.0 mg/kg/injection, schedule: Q01DX009 (ip), vehicle: saline 105 % of control | [17] 105 % of control | [12] 97 % of control | dose: 150.0 mg/kg/injection, schedule: Q01DX009 (ip), vehicle: saline 112 % of control | dose: 200.0 mg/kg/injection, schedule: Q01DX009 (ip), vehicle: saline sonified 104 % of control | [13] 95 % of control

CCOc1ccnc(OCC)n1
inactive: [18] 86 % of control | dose: 25.0 mg/kg/injection, schedule: Q04DX003 (ip), vehicle: saline with Tween-80 95 % of control | [19] 100 % of control | [20] 97 % of control | [21] 91 % of control | [22] 106 % of control

CN1CCCN(C)CC1
inactive: [18] 104 % of control | [19] 97 % of control | [21] 103 % of control | [22] 95 % of control | dose: 200.0 mg/kg/injection, schedule: Q01DX009 (ip), vehicle: saline with Tween-80 91 % of control | [23] 100 % of control | [24] 102 % of control

CCCCCCCCCCCCCCCCCCN(c1ccc(C(=O)OCC)cc1)S(=O)(=O)c1ccc(C)cc1
inactive: dose: 50.0 mg/kg/injection, schedule: Q01DX009 (ip), vehicle: saline 93 % of control | [17] 93 % of control | [1] 97 % of control | dose: 200.0 mg/kg/injection, schedule: Q01DX009 (ip), vehicle: saline 90 % of control | [2] 94 % of control | [3] 94 % of control

COc1cc(Cc2c3cc4c(cc3cc[n+]2C)OCO4)c(Oc2cc(Cc3c4cc5c(cc4cc[n+]3C)OCO5)ccc2OC)cc1OC
inactive: dose: 3.12 mg/kg/injection, schedule: Q04DX003 (ip), vehicle: saline with Tween-80 97 % of control | dose: 6.25 mg/kg/injection, schedule: Q04DX003 (ip), vehicle: saline with Tween-80 95 % of control | dose: 12.5 mg/kg/injection, schedule: Q04DX003 (ip), vehicle: saline with Tween-80 95 % of control

CCNC(=O)Nc1ncn[nH]1
inactive: dose: 75.0 mg/kg/injection, schedule: Q01DX001 (ip), vehicle: carboxymethylcellulose (CMC) 102 % of control | dose: 150.0 mg/kg/injection, schedule: Q01DX001 (ip), vehicle: carboxymethylcellulose (CMC) 98 % of control

O=C(CCN1CC1)Nc1ccc(Cc2ccc(NC(=O)CCN3CC3)cc2)cc1
inactive: dose: 20.0 mg/kg/injection, schedule: Q04DX003 (ip), vehicle: Klucel (hydroxypropylcellulose) (HPC) 101 % of control | dose: 40.0 mg/kg/injection, schedule: Q04DX003 (ip), vehicle: Klucel (hydroxypropylcellulose) (HPC) 117 % of control | dose: 80.0 mg/kg/injection, schedule: Q04DX003 (ip), vehicle: Klucel (hydroxypropylcellulose) (HPC) 106 % of control

NS(=O)(=O)c1ccc(NC(=S)NC(=O)/C=C/c2ccccc2)cc1
inactive: dose: 100.0 mg/kg/injection, schedule: Q01DX009 (sc), vehicle: olive oil, sesame oil, peanut oil 107 % of control | dose: 100.0 mg/kg/injection, schedule: Q04DX003 (sc), vehicle: olive oil, sesame oil, peanut oil 107 % of control | dose: 200.0 mg/kg/injection, schedule: Q01DX009 (sc), vehicle: olive oil, sesame oil, peanut oil 113 % of control | dose: 200.0 mg/kg/injection, schedule: Q04DX003 (sc), vehicle: olive oil, sesame oil, peanut oil 97 % of control | dose: 400.0 mg/kg/injection, schedule: Q01DX009 (sc), vehicle: olive oil, sesame oil, peanut oil 104 % of control | dose: 400.0 mg/kg/injection, schedule: Q04DX003 (sc), vehicle: olive oil, sesame oil, peanut oil 103 % of control

CC1C(=O)OC2CC[N+]3([O-])CC=C(COC(=O)C(C)(O)C1(C)O)C23 (stereo not drawn)
inactive: [7] 96 % of control | [8] 96 % of control | [9] 102 % of control

O=C(CCCC(=O)NO)NO
inactive: [25] 113 % of control | [10] 100 % of control | [26] 100 % of control | [11] 97 % of control | [27] 97 % of control | dose: 400.0 mg/kg/injection, schedule: Q04DX002 (ip), vehicle: saline 113 % of control

O=C(CCc1ccccc1)NC(=S)Nc1ccc(I)cc1
inactive: dose: 12.5 mg/kg/injection, schedule: Q01DX009 (ip), vehicle: saline with Tween-80 94 % of control and 90 % of control | [4] 106 % of control | [25] 104 % of control | [22] 100 % of control | [5] 103 % of control | [26] 93 % of control and 101 % of control | [23] 97 % of control | [6] 91 % of control | dose: 400.0 mg/kg/injection, schedule: Q01DX009 (ip), vehicle: saline with Tween-80 95 % of control and 99 % of control | [27] 101 % of control and 90 % of control | [24] 96 % of control

CCC1(CC)C(=O)C=CNC1=O
inactive: [20] 95 % of control | [22] 107 % of control | [23] 102 % of control

CC1C(C)(C)P(=O)(Oc2ccc3ccccc3c2)C1(C)C (stereo not drawn)
inactive: [22] 100 % of control | [23] 97 % of control | [24] 92 % of control
